Reference: patent US9574189B2, “Enzymatic encoding methods for efficient synthesis of large libraries” (Nuevolution A/S, priority 2005, dated 2017)
pKi: −log10 of the molar value.

Molecular target: T1, human alpha-thrombin (Homo sapiens, UniProt P00734)
T1 construct: purchased Heamatologic Technologies Inc
Assay: Ki of released display molecule against thrombin, chromogenic substrate S-2238
Type: biochemical
Details: display molecule released by UV cleavage; 5 min incubation at 22° C.; nonlinear regression of Vmax; 95% confidence interval 0-13 nM
Method: To determine the Ki of the released display molecule against the protease thrombin, human alpha-thrombin (Heamatologic Technologies Inc.) was diluted in buffer (0.015 units/μl) and the released display molecule was added. Following 5 minutes of incubation at 22° C. a chromogenic substrate (Chromogenix catalogue number S-2238) was added and the maximum turnover (Vmax) of the enzyme was determined in a by measuring the change in absorbance at 405 nm using a Versamax reader (Molecular Devices). This was repeated for different concentrations of the released display molecule and different concentrations of substrate. The Vmax values obtained were then fitted using nonlinear regression implemented in the Prism software (Graphpad) to obtain the Ki of the display molecule.

pKi: 8.28
Structure (SMILES): NC(=O)COc1ccc(Cl)cc1CNC(=O)[C@H]1CCCN1C(=O)[C@@H](N)C1CCCCC1
